“And” between values parts separate entries of the source, which are not always exact repeats. Equal values may be shown once.
What was measured:
Type in all cases: cell-based, human
HIF1α protein = test: Western blot of HIF1α in A375 and A2780 cells at 20% or 1% O2; settings: 25 nM, 20% or 1% O2, 24 h
Experimental: Fig. 7 NHWD-870 inhibited CSF1 expression through suppressing BRD4 and HIF1α in tumor cells. a, b Representative western blot analysis of control (Ctrl) and BRD4 knockout (KO) A375 and A2780 cells exposed to 20% or 1% O2 for 24 hours. Selected from three independent experiments. c, d Representative western blot analysis of A375 and A2780 cells treated with DMSO or 25 nM NHWD-870 and exposed to 20% or 1% O2 for 24 h. Selected from three independent experiments. e Relative HIF1 luciferase reporter activity in control (Ctrl), BRD4 knockout (KO), or NHWD-870 treated A375 and A2780 cells exposed to 20% or 1% O2 for 24 h. […] NHWD-870 inhibits the proliferation and survival of TAMs partly by inhibiting BRD4 activity, HIF1α expression, and CSF1 secretion by tumor cells, and downregulating CSF1R mediated ERK and PI3K/AKT signaling in TAMs. p values were calculated using two-tailed, unpaired t tests in this figure. *p < 0.05; **p < 0.01; ***p < 0.001. […]
of treatment, 10 μl AlamarBlue reagent (0.3 mg/ml) was added to each well, and after 18h, the florescence intensity in each well was measured using a top-reading fluorescent plate reader with excitation at 530 nm and emission at 590 nm.
4. […] Supernatants were collected and determined with a Bradford Protein Assay kit (Bio-Rad, Hercules, CA). […]
(§1) every week. […] Colony numbers were calculated with imageJ version

MDA-MB231 cells = test: Clonogenic (colony formation) assay, MDA-MB231; settings: MDA-MB231, 250 nM, 5 days
Experimental: (§2) Fig. 2 NHWD-870 inhibited BRD4 phosphorylation and c-MYC expression, and suppressed cell growth. a Representative western blot analysis of p-BRD4 (s484/488), BRD4, c-MYC, and GAPDH after treatment of MDA-MB231, SUM159, A2780 ES-2, and H526 cells with JQ-1 or NHWD-870 at the indicated concentrations for 24 h. GAPDH served as the loading control. Selected from three independent experiments. b MTT assays of H526, A2780, ES-2, and MDA-MB231 cells treated with JQ-1 or NHWD-870 at the indicated concentrations for 5 days. Data are presented as mean ± SEM from three independent experiments. c, d Clonogenic assays of H526, A2780, ES-2 and MDA-MB231 cells treated with 250 nM JQ-1 or NHWD-870 for 5 days. Shown are representative images (c) and quantification of colonies (d). […] Shown are representative images (e) and quantification of relative colony sizes (f). Scale bar, 50 μm. Data are presented as mean ± SEM from five independent experiments. p values were calculated using two-tailed, unpaired t tests in this figure. **p < 0.01; ***p < 0.001. Source data are provided as a Source Data file. […]
(§3) 5. Colony formation assay. Cells were seeded in 6-well plates at 3,000 cells/well […]
as §1

H526 cells = test: Clonogenic (colony formation) assay, H526; settings: H526, 250 nM, 5 days
Experimental: as §2, §3, §1

Cc1nnn(C)c1-c1cnc2c3c4cnn(C)c4ccc3n([C@H](c3ccccc3)C3CCOCC3)c2c1 [NHWD-870]
HIF1α protein (western blot) (HIF1α protein): decreased HIF1α protein | Clone Number (clonogenic assay) (MDA-MB231 cells): 571 and 603 and 635 and 542 and 519 | Clone Number (clonogenic assay) (H526 cells): 75 and 84 and 92 and 65 and 76
